Measurements: ChEMBL document CHEMBL3046389, “Synthesis and biological evaluation of novel hydroquinone dimethyl ethers as potential anticancer and antimicrobial agents” (2013)
≈ marks a conversion by molar mass, not a printed value.

Tests used:
Type in all cases: functional
HOP-62 [1] = test: Anticancer activity against Homo sapiens (human) HOP62 cells after 48 hr by SRB assay; conditions: HOP-62, 48 h
A549 = test: Anticancer activity against Homo sapiens (human) A549/ATCC cells after 48 hr by SRB assay; conditions: A549, 48 h
SR = test: Anticancer activity against Homo sapiens (human) SR cells after 48 hr by SRB assay
MOLT-4 = test: Anticancer activity against Homo sapiens (human) MOLT4 cells after 48 hr by SRB assay; conditions: MOLT-4, 48 h
HCC 2998 [2] = test: Growth inhibition of Homo sapiens (human) HCC2998 cells at 10 uM after 48 hr by SRB assay; conditions: HCC 2998, 48 h, read-out: GI
Hs-578T = test: Growth inhibition of Homo sapiens (human) Hs 578T cells at 10 uM after 48 hr by SRB assay; conditions: read-out: GI
UO-31 = test: Growth inhibition of Homo sapiens (human) UO31 cells at 10 uM after 48 hr by SRB assay; conditions: UO-31, 48 h, read-out: GI
SN12C = test: Growth inhibition of Homo sapiens (human) SN12C cells at 10 uM after 48 hr by SRB assay; conditions: read-out: GI
LOX IMVI [3] = test: Anticancer activity against Homo sapiens (human) LOXIMVI cells after 48 hr by SRB assay
SF-539 = test: Anticancer activity against Homo sapiens (human) SF539 cells after 48 hr by SRB assay; conditions: SF-539, 48 h
KM12 = test: Anticancer activity against Homo sapiens (human) KM12 cells after 48 hr by SRB assay; conditions: KM12, 48 h
HCT-15 = test: Anticancer activity against Homo sapiens (human) HCT15 cells after 48 hr by SRB assay; conditions: HCT-15, 48 h
HCT-116 = test: Anticancer activity against Homo sapiens (human) HCT116 cells after 48 hr by SRB assay; conditions: HCT-116, 48 h
HCC 2998 [4] = test: Anticancer activity against Homo sapiens (human) HCC2998 cells after 48 hr by SRB assay; conditions: HCC 2998, 48 h
HOP-62 [5] = test: Growth inhibition of Homo sapiens (human) HOP62 cells at 10 uM after 48 hr by SRB assay; conditions: HOP-62, 48 h, read-out: GI
Staphylococcus aureus = test: Antimicrobial activity against Staphylococcus aureus DSM 1104 after 48 hr by two-fold serial broth dilution method; conditions: DSM 1104, 48 h
TK-10 = test: Anticancer activity against Homo sapiens (human) TK10 cells after 48 hr by SRB assay; conditions: TK-10, 48 h
CAKI-1 = test: Anticancer activity against Homo sapiens (human) CAKI-1 cells after 48 hr by SRB assay; conditions: CAKI-1, 48 h
786-0 = test: Anticancer activity against Homo sapiens (human) 786-0 cells after 48 hr by SRB assay; conditions: 786-0, 48 h
NCI/ADR-RES = test: Anticancer activity against Homo sapiens (human) NCI/ADR-RES cells after 48 hr by SRB assay
OVCAR-5 = test: Anticancer activity against Homo sapiens (human) OVCAR5 cells after 48 hr by SRB assay; conditions: OVCAR-5, 48 h
OVCAR-8 = test: Anticancer activity against Homo sapiens (human) OVCAR8 cells after 48 hr by SRB assay; conditions: OVCAR-8, 48 h
OVCAR-3 = test: Anticancer activity against Homo sapiens (human) OVCAR3 cells after 48 hr by SRB assay; conditions: OVCAR-3, 48 h
IGROV-1 = test: Anticancer activity against Homo sapiens (human) IGROV1 cells after 48 hr by SRB assay; conditions: IGROV-1, 48 h
M14 = test: Anticancer activity against Homo sapiens (human) M14 cells after 48 hr by SRB assay; conditions: M14, 48 h
Escherichia coli = test: Antimicrobial activity against Escherichia coli ATCC 11775 after 48 hr by two-fold serial broth dilution method; conditions: ATCC 11775, 48 h
Malme-3M = test: Growth inhibition of Homo sapiens (human) MALME-3M cells at 10 uM after 48 hr by SRB assay; conditions: read-out: GI
LOX IMVI [6] = test: Growth inhibition of Homo sapiens (human) LOXIMVI cells at 10 uM after 48 hr by SRB assay; conditions: read-out: GI
SF-295 = test: Growth inhibition of Homo sapiens (human) SF295 cells at 10 uM after 48 hr by SRB assay; conditions: SF-295, 48 h, read-out: GI
[7] = read-out: LC50 (the source's name)

**Q.** `COc1ccc(OC)c(/C=C/c2nnc(Nc3ccc(Cl)cc3)o2)c1` was tested. Which GI50 (HOP-62 [1]) did it give?
**A.** Its GI50 is 2.71 µM.

**Q.** What about the TGI (HOP-62 [1]) of the same molecule?
**A.** Its TGI is 7.68 µM.

**Q.** What about the CC50 (HOP-62 [1]; [7]) of the same molecule?
**A.** Its CC50 is 38.9 µM.

**Q.** What about the GI50 (A549) of the same molecule?
**A.** Its GI50 is 3.67 µM.

**Q.** And the TGI (A549)?
**A.** Its TGI is 17.8 µM.

**Q.** What about the CC50 (A549; [7]) of the same molecule?
**A.** The CC50 was 78.6 µM.

**Q.** And the GI50 (SR)?
**A.** The GI50 was 48.2 µM.

**Q.** And the TGI (SR)?
**A.** The TGI was greater than 100 µM.

**Q.** And the CC50 (SR; [7])?
**A.** The CC50 was greater than 100 µM.

**Q.** And the GI50 (MOLT-4)?
**A.** The GI50 was greater than 100 µM.

**Q.** What about the TGI (MOLT-4) of the same molecule?
**A.** The TGI was greater than 100 µM.

**Q.** What about the CC50 (MOLT-4; [7]) of the same molecule?
**A.** Its CC50 is greater than 100 µM.

**Q.** What about the inhibition of growth at 10 µM (HCC 2998 [2]) of the same molecule?
**A.** The inhibition of growth at 10 µM was 44.6%.

**Q.** What about the inhibition of growth at 10 µM (Hs-578T) of the same molecule?
**A.** The inhibition of growth at 10 µM was 93.1%.

**Q.** And the inhibition of growth at 10 µM (UO-31)?
**A.** Its inhibition of growth at 10 µM is 95%.

**Q.** What about the inhibition of growth at 10 µM (SN12C) of the same molecule?
**A.** The inhibition of growth at 10 µM was 55.1%.

**Q.** What about the GI50 (LOX IMVI [3]) of the same molecule?
**A.** The GI50 was 7.91 µM.

**Q.** What about the TGI (LOX IMVI [3]) of the same molecule?
**A.** The TGI was greater than 100 µM.

**Q.** And the CC50 (LOX IMVI [3]; [7])?
**A.** The CC50 was greater than 100 µM.

**Q.** And the GI50 (SF-539)?
**A.** Its GI50 is 11.8 µM.

**Q.** What about the TGI (SF-539) of the same molecule?
**A.** Its TGI is 60.5 µM.

**Q.** What about the CC50 (SF-539; [7]) of the same molecule?
**A.** Its CC50 is greater than 100 µM.

**Q.** And the GI50 (KM12)?
**A.** Its GI50 is 17.4 µM.

**Q.** What about the TGI (KM12) of the same molecule?
**A.** Its TGI is greater than 100 µM.

**Q.** And the CC50 (KM12; [7])?
**A.** Its CC50 is greater than 100 µM.

**Q.** What about the GI50 (HCT-15) of the same molecule?
**A.** The GI50 was 34.1 µM.

**Q.** What about the TGI (HCT-15) of the same molecule?
**A.** Its TGI is greater than 100 µM.

**Q.** What about the CC50 (HCT-15; [7]) of the same molecule?
**A.** The CC50 was greater than 100 µM.

**Q.** And the GI50 (HCT-116)?
**A.** The GI50 was 2.97 µM.

**Q.** What about the TGI (HCT-116) of the same molecule?
**A.** Its TGI is 13.1 µM.

**Q.** And the CC50 (HCT-116; [7])?
**A.** The CC50 was greater than 100 µM.

**Q.** What about the GI50 (HCC 2998 [4]) of the same molecule?
**A.** Its GI50 is greater than 100 µM.

**Q.** What about the TGI (HCC 2998 [4]) of the same molecule?
**A.** Its TGI is greater than 100 µM.

**Q.** And the CC50 (HCC 2998 [4]; [7])?
**A.** The CC50 was greater than 100 µM.

**Q.** What about the inhibition of growth at 10 µM (HOP-62 [5]) of the same molecule?
**A.** Its inhibition of growth at 10 µM is 64.7%.

**Q.** And the MBC (Staphylococcus aureus)?
**A.** The MBC was 50 µg/mL (≈ 140 µM).

**Q.** What about the MIC (Staphylococcus aureus) of the same molecule?
**A.** Its MIC is 50 µg/mL (≈ 140 µM).

**Q.** And the GI50 (TK-10)?
**A.** The GI50 was 7.4 µM.

**Q.** And the TGI (TK-10)?
**A.** The TGI was 83.2 µM.

**Q.** What about the CC50 (TK-10; [7]) of the same molecule?
**A.** The CC50 was greater than 100 µM.

**Q.** And the GI50 (CAKI-1)?
**A.** The GI50 was 6.02 µM.

**Q.** What about the TGI (CAKI-1) of the same molecule?
**A.** Its TGI is greater than 100 µM.

**Q.** And the CC50 (CAKI-1; [7])?
**A.** Its CC50 is greater than 100 µM.

**Q.** What about the GI50 (786-0) of the same molecule?
**A.** Its GI50 is 2.67 µM.

**Q.** And the TGI (786-0)?
**A.** The TGI was 7.6 µM.

**Q.** And the CC50 (786-0; [7])?
**A.** The CC50 was 55.3 µM.

**Q.** What about the GI50 (NCI/ADR-RES) of the same molecule?
**A.** Its GI50 is 7.62 µM.

**Q.** And the LC50 (NCI/ADR-RES)?
**A.** The LC50 was greater than 100 µM.

**Q.** And the TGI (NCI/ADR-RES)?
**A.** Its TGI is 98.1 µM.

**Q.** And the GI50 (OVCAR-5)?
**A.** Its GI50 is 32.5 µM.

**Q.** What about the TGI (OVCAR-5) of the same molecule?
**A.** The TGI was greater than 100 µM.

**Q.** And the CC50 (OVCAR-5; [7])?
**A.** The CC50 was greater than 100 µM.

**Q.** What about the GI50 (OVCAR-8) of the same molecule?
**A.** Its GI50 is 4.91 µM.

**Q.** And the LC50 (OVCAR-8)?
**A.** The LC50 was 76.4 µM.

**Q.** What about the TGI (OVCAR-8) of the same molecule?
**A.** The TGI was 21 µM.

**Q.** And the GI50 (OVCAR-3)?
**A.** Its GI50 is 3.55 µM.

**Q.** And the LC50 (OVCAR-3)?
**A.** Its LC50 is greater than 100 µM.

**Q.** And the TGI (OVCAR-3)?
**A.** Its TGI is 15.9 µM.

**Q.** What about the GI50 (IGROV-1) of the same molecule?
**A.** The GI50 was 7.7 µM.

**Q.** And the LC50 (50% lethal concentration) (IGROV-1)?
**A.** The LC50 (50% lethal concentration) was greater than 100 µM.

**Q.** And the TGI (IGROV-1)?
**A.** The TGI was greater than 100 µM.

**Q.** And the GI50 (M14)?
**A.** The GI50 was 20.7 µM.

**Q.** And the LC50 (M14)?
**A.** Its LC50 is greater than 100 µM.

**Q.** And the TGI (M14)?
**A.** Its TGI is greater than 100 µM.

**Q.** And the MBC (Escherichia coli)?
**A.** Its MBC is 50 µg/mL (≈ 140 µM).

**Q.** And the MIC (Escherichia coli)?
**A.** The MIC was 50 µg/mL (≈ 140 µM).

**Q.** And the inhibition of growth at 10 µM (Malme-3M)?
**A.** The inhibition of growth at 10 µM was 58.5%.

**Q.** What about the inhibition of growth at 10 µM (LOX IMVI [6]) of the same molecule?
**A.** Its inhibition of growth at 10 µM is 32.3%.

**Q.** And the inhibition of growth at 10 µM (SF-295)?
**A.** The inhibition of growth at 10 µM was 53.1%.
